Reference: patent US20220331357A1, “COMPOSITIONS AND METHODS FOR THE PREVENTION AND TREATMENT OF PANCREATITIS” (Duke University, priority 2019, published 2022)
Read-outs that look alike come from different tables or passages of the source.

Legend:
Piezol = target: T1, Piezol (Mus musculus, UniProt E2JF22); assay: Yoda1 activation of Piezol in pancreatic acinar cells; format: cell-based, mice
T1 construct: endogenous in cells; host or cells: isolated pancreatic acini / acinar cells (primary, mouse)
T1 sequence (E2JF22 whole entry): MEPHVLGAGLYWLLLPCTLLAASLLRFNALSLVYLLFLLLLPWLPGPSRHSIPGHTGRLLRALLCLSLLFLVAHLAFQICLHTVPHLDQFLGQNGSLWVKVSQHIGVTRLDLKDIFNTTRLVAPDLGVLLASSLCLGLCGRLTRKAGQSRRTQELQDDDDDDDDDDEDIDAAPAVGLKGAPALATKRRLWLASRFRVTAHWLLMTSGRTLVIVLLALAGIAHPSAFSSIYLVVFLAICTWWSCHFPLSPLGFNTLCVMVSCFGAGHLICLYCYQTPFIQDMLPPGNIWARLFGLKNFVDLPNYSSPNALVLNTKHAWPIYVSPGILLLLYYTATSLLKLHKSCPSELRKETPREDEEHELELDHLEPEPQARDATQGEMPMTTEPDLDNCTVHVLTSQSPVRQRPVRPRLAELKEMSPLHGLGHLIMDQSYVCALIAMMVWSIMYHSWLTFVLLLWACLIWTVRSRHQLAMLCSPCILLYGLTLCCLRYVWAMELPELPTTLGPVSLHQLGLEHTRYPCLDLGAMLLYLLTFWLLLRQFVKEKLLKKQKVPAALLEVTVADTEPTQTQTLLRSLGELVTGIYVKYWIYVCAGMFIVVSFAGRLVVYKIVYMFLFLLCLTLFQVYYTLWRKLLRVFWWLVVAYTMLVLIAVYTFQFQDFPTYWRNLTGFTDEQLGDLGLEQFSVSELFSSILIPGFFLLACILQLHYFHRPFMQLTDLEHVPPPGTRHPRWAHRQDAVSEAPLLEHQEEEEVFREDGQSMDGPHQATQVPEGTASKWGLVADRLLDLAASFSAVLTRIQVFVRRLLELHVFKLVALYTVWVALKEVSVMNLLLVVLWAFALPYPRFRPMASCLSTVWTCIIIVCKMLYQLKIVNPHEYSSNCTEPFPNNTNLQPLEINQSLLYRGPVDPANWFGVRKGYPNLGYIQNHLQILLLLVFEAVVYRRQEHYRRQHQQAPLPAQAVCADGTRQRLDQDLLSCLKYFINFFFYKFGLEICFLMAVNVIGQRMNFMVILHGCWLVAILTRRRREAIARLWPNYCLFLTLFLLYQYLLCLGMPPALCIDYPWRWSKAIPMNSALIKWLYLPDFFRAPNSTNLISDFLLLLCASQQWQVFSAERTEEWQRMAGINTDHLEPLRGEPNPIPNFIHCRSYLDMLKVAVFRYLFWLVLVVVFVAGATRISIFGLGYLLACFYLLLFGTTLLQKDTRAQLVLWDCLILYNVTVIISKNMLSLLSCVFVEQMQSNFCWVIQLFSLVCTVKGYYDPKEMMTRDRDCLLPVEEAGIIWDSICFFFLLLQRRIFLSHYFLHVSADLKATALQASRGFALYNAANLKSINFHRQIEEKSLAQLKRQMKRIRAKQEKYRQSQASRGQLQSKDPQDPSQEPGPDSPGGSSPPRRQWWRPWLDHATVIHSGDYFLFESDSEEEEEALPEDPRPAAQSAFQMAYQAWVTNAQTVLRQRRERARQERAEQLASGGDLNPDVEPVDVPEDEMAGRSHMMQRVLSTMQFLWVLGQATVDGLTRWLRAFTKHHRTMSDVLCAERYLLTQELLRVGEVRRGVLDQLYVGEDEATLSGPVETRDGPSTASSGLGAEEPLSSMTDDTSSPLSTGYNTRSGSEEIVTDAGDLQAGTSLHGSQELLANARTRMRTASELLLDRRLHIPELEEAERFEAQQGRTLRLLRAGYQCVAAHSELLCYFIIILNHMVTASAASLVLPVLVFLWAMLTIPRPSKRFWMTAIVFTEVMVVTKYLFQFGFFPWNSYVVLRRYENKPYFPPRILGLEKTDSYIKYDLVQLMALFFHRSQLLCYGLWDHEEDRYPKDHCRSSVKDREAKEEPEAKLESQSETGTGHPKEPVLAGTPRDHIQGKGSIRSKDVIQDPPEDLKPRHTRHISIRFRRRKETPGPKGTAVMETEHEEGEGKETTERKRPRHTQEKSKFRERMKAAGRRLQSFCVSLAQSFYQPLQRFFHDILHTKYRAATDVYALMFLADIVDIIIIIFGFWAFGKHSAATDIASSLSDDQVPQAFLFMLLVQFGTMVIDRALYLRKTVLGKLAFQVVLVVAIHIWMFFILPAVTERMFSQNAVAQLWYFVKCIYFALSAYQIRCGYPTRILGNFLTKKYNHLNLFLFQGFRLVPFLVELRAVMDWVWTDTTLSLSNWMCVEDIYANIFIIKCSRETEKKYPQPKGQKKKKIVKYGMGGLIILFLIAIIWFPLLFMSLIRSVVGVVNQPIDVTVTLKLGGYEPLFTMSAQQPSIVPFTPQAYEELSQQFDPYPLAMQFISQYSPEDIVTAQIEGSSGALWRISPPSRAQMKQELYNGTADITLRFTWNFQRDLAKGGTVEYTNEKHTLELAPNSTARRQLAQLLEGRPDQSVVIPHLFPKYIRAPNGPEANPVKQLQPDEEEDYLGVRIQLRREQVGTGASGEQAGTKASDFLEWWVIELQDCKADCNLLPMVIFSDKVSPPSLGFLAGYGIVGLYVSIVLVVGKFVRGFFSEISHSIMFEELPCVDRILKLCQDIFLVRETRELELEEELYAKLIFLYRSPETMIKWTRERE
Description: Pathological activation of Piezol leads to [Ca^2+]i overload, mitochondrial dysfunction, trypsinogen activation, and acinar cell necrosis. Moreover, Piezol activation explains how elevation of intrapancreatic duct pressure (e.g., ERCP or gallstone impaction) causes pancreatitis. Piezol can be activated by mechanical pushing or shear stress. A method for studying the effects of shear stress on isolated pancreatic acini in vitro was developed. Pancreatic acini are cultured on Matrigel and placed into a fluid flow chamber. Cells can be loaded with either the calcium sensitive dye, Calcium 6-QF (Molecular Devices), or the active trypsin enzyme substrate BZiPAR [rhodamine 110, bis(CBZ-L-isoleucyl-L-prolyl-L-arginine amide)] (10 μM) and imaged using a fluorescence microscope while fluid flow is regulated to control the level of shear stress.
As shown in FIG. 11(A)-(C), subjecting acinar cells to fluid shear stress at 12 dyne/cm^2 produced a prolonged increase in [Ca^2+]i similar to that seen with supramaximal, pathological concentrations of caerulein and was sufficient to cause trypsin activation. Shear pressure also led to mitochondrial membrane depolarization indicating mitochondrial dysfunction. These effects are specific for Piezol since changes were not observed in Piezol1^aci knockout mice. Yoda1 is a selective agonist for Piezol and can be used to simulate pressure by chemically activating Piezol. […] In order to determine if phosphate might protect against pressure-induced pancreatitis, we observed that phosphate supplementation reduced Yoda1-stimulated elevations in [Ca^2+]i and LDH release.

[1] = tested on: isolated mouse pancreatic acini; assay: Caerulein-induced injury in isolated pancreatic acini; format: cell-based; details: for caerulein-induced damage (release of trypsin, IL-1β and LDH): 1, 5 or 10 mM sodium phosphate, pH 7.4, caerulein 10 nM for 30 minutes
Source text: To evaluate the effects of phosphate on acinar cell function pancreatic acini in vitro were examined High concentrations of caerulein in vitro induce pancreatic injury similar to the effects observed in vivo and this method has been used to study direct effects on pancreatic acinar cells. Specifically, caerulein causes pancreatitis by hyperstimulating the acinar cells through the CCK1 receptor. In isolated pancreatic acini, caerulein causes trypsin activation, generation of the proinflammatory cytokine cytosolic […], and cell necrosis as manifest by LDH release. Each of these pathological results is seen with caerulein hyperstimulation in vivo.
It was observed that phosphate supplementation, independent of its buffering effects, reduced caerulein-induced LDH release, a marker of cell damage (FIG. 4). In addition, it was sought to determine if lack of ATP contributes to pancreatitis and whether the protective effects of phosphate are through restoration of intracellular ATP levels. […] Isolated mouse pancreatic acini were treated with caerulein in buffer containing Na2HPO4 concentrations of 1-10 mM. Supernatant LDH was measured by commercial LDH assay. Cytosolic ATP levels were measured using a commercially available fluorometric assay. *P<0.05, **<0.01, ***<0.001.
All solutions were adjusted to pH 7.4. A supramaximal concentration of caerulein (10 nM) was added for 30 minutes as indicated after which media were analyzed for release of trypsin, IL-1β and LDH. (*P<0.05, **P<0.01, ***P<0.001).
Mitochondrial membrane potential was measured in isolated pancreatic acini using tetramethylrhodamine ethyl ester (TMRE) fluorescence.
Specifically, isolated pancreatic acini were loaded with the mitochondrial fluorescent dye TMRE and incubated in phosphate-free buffer with a supramaximal concentration of caerulein (10 nM). TMRE fluorescence and intracellular ATP levels were measure after 30 minutes. *P<0.05, ****P<0.0001.
Isolated pancreatic acini loaded with TMRE were incubated in buffer with 0 or 5 mM phosphate (left panel). Effects of increasing phosphate concentrations on ATP production are shown in the right panel. *P<0.05, **P<0.01, ****P<0.0001. These findings illustrate the requirement for Pi in maintaining and restoring mitochondrial function and ATP synthesis under the stress of caerulein hyperstimulation.

[2] = tested on: ethanol-induced pancreatitis in mice
Source text: These findings raise the question of whether phosphate deficiency contributes to the progression of pancreatitis. This may be particularly relevant to alcohol-induced pancreatitis, given that alcoholic patients are susceptible to hypophosphatemia due to nutritional deficiencies and the effects of alcohol ingestion on phosphate absorption. Therefore, it was hypothesized that low phosphate levels may be predispose to alcohol-induced pancreatic injury. To test this hypothesis, we placed mice on a low phosphate diet and determined their susceptibility to ethanol. Animals were placed on a chow diet containing low amounts of phosphate (Pi) for three weeks. The low phosphate diet (Envigo #TD.140659) was comprised of 0.02% Pi compared to normal chow diet which contained 1% Pi. Serum levels of phosphate declined in mice on a low phosphate diet from normal values of 2.2 mM to 1.4 mM (FIG. 12). In order to determine if the diet rendered mice more sensitive to ethanol, mice were administered ethanol by orogastric gavage at […] (30% ethanol at 10 mL/kg) daily for five days (Control mice were gavaged with water). Mice were euthanized 12 hours after the last dose of ethanol. The pancreatitis severity scoring system is a composite of edema, necrosis, inflammatory cell infiltration and hemorrhage severity as previously published. […]

[3] = tested on: pressure-induced pancreatitis; assay: ERCP pressure-induced pancreatitis, nicotinic agonists; format: in vivo
Source text: GTS-21 (DMXBA) is a derivative of the natural product anabaseine that acts as a partial agonist at neural nicotinic acetylcholine receptors. GTS-21 is 3-2,4-dimethoxybenzylidene anabaseine.

[4] = tested on: pancreatic acini from C57BL/6J mice; format: cell-based; details: 50 mM ethanol
Description: In order to determine the effect of ethanol exposure and phosphate levels on acinar cell function, studies were conducted in vitro. Pancreata was harvested from ND-fed and LPD-fed C57BL/6J mice and isolated acinar cells using phosphate-free buffer solutions. Acinar cell function was assessed at various concentrations of ethanol (0-50 mM).
Next, it was investigated as to whether phosphate supplementation could preserve pancreatic acinar cell function. Pancreatic acini from LPD-fed mice were isolated in phosphate-free buffer and treated with 50 mM ethanol and 0-5 mM Na2HPO4.
To further explore the mechanism underlying the effect of phosphate on ethanol-induced acinar cell dysfunction, cellular ATP content and mitochondrial function was investigated.
In order to determine if phosphate sensitizes mitochondria to the effects of alcohol, we measured TMRE fluorescence intensity, a measure of mitochondrial membrane potential that indicates normal mitochondrial function.
Pancreatic acini from LPD-fed mice were again isolated in phosphate-free buffer and treated with 50 mM ethanol and 0-5 mM Na2HPO4.

[5] = tested on: ERCP pancreatitis in mice; assay: ERCP pancreatitis mouse model (retrograde pancreatic duct infusion); format: in vivo; details: mice on low phosphate diet; 200 μg/g intraperitoneal 1 and 4 hours after induction; 24 hours
Source text: For this study, a mouse model of this form of pancreatitis was employed.

caerulein-treated mice = assay: Caerulein-induced pancreatitis in mice; format: in vivo; details: 250 μg/g Na2HPO4 1 hour after first of 6 hourly caerulein injections (50 ng/g); vs normal saline
Source text: Caerulein-induced pancreatitis in mice is an established model of acute experimental pancreatitis. Hyperstimulation of the pancreas by cholecystokinin or its analogue caerulein is a commonly used model of experimental acute pancreatitis in rodents. Caerulein produces mild to moderate, non-fatal pancreatitis that resolves spontaneously.
As shown in FIGS. 3A-3C, phosphate supplementation reduced all parameters of pancreatitis following caerulein administration including serum amylase levels (FIG. 3A), pancreatic MPO levels (FIG. 3B) and pancreatic histology (FIG. 3C). Specifically, mice (C56BL/6 adult mice) were treated with 6 hourly injections of caerulein sulfate (50 ng/g) by intraperitoneal injection. Sodium phosphate (250 μg/g Na2HPO4) and normal saline (NS) were given 1 hour after the first injection. The study was terminated 1 hour after the last caerulein injection at which time, blood and pancreas tissue are collected for measurements of serum amylase, and pancreatic edema, MPO, and histological pancreatitis severity. Pancreatic myeloperoxidase (MPO) and serum amylase levels were measured by commercially available assays. **P<0.01 vs. normal saline in caerulein-treated mice.

[6] = caerulein 10 nM, phosphate-free buffer, 30 minutes
[7] = ERCP pressure-induced pancreatic inflammation
[8] = LPD-derived acini, phosphate-free buffer

Compound: phosphate
- Yoda1-stimulated LDH release (Piezol; phosphate supplementation): reduced
- Yoda1-stimulated elevations in [Ca2+]i (Piezol; phosphate supplementation): reduced
- caerulein-induced damage (release of trypsin, IL-1β and LDH) [1]: improved
- ethanol-induced injury ([2]; mice on low phosphate diet, sodium phosphate 50 mg/kg gavage daily for 5 days): protects

Compound: caerulein
- ATP production [1, 6]: reduced ATP production
- mitochondrial membrane potential (TMRE fluorescence) [1, 6]: caused mitochondrial depolarization

Compound: CN1CCCC1c1cccnc1 (centres unmarked) [nicotine]
- histopathology [3, 7]: dose-dependently inhibits
- pancreatic MPO levels [3, 7]: dose-dependently inhibits
- pancreatic edema [3, 7]: dose-dependently inhibits
- serum amylase [3, 7]: dose-dependently inhibits

Compound: COc1ccc(/C=C2\CCCN=C2c2cccnc2)c(OC)c1 [GTS-21, 3-2,4-dimethoxybenzylidene anabaseine]
- protection of the pancreas against pressure-induced pancreatitis ([3]; prior splenectomy): abolished
- protection against pressure-induced acute pancreatitis ([3]; splenocytes depleted of T cells): do not protect
- protection of the pancreas against pressure-induced pancreatitis ([3]; systemic administration): significantly protected

Compound: Clc1cccc(Cl)c1CSc1nnc(-c2cnccn2)s1 [Yoda1]
- LDH release (Piezol; Yoda1 25 μM): increased
- [Ca2+]i (Piezol; Yoda1 25 μM): caused an elevation

Compound: CCO [ethanol]
- TMRE fluorescence intensity ([4]; LPD acini): significantly decreased
- total cellular ATP levels ([4]; LPD-derived acini): significantly decreased
- Lactate dehydrogenase (LDH) [4, 8]: significantly increased
- trypsin activity [4, 8]: significantly increased
- total cellular ATP levels ([4]; ND-derived acini): not observed
- LDH and trypsin activity ([4]; acini from mice on normal diet (ND)): not seen

Compound: O=P(O)(O)O [sodium phosphate]
- pancreatic injury (survival, pancreatic edema) [5]: protected
- mortality of ethanol-treated mice on the low phosphate diet ([2]; sodium phosphate 50 mg/kg orogastric gavage daily for 5 days, ethanol 3 mg/kg daily for 5 days): significantly reduced

Compound: O=P([O-])([O-])O.[Na+].[Na+] [Na2HPO4]
- pancreatic MPO levels (caerulein-treated mice): reduced
- pancreatic histology (caerulein-treated mice): reduced
- serum amylase levels (caerulein-treated mice): reduced
- ATP levels ([4]; LPD acini, 0-5 mM Na2HPO4): significantly increased
- TMRE fluorescence intensity ([4]; LPD acini, 0-5 mM Na2HPO4): markedly improved
- LDH ([4]; LPD acini, 5 mM Na2HPO4): significantly decreased
- trypsin activity ([4]; LPD acini, 5 mM Na2HPO4): significantly decreased
- caerulein-induced LDH release ([1]; buffer containing Na2HPO4 1-10 mM): reduced
- cytosolic ATP levels ([1]; caerulein-treated acini, Na2HPO4 1-10 mM): restored ATP levels in a dose-dependent fashion

Compound: O=P([O-])(O)O.[Na+] [NaH2PO4]
- caerulein-induced damage (release of trypsin, IL-1β and LDH) [1]: protects
- mitochondrial function (TMRE fluorescence) ([1]; caerulein hyperstimulation, 0 or 5 mM phosphate): dose-dependently restored
- ATP synthesis ([1]; caerulein hyperstimulation, increasing phosphate concentrations): dose-dependently restored
